Measured values as given in patent US10076519B2 (CYTOKINETICS, INC., priority 2010, dated 2018).

The compounds below were run on rabbit skeletal myofibrils (fast skeletal myofibrils) (assay: Activation of fast skeletal myofibrils (PUMA assay, PK/LDH-coupled ATPase at pCa25)). Conditions: AC1.4 determined according to the procedure of Example 39; reported as class symbols.
Assay type: biochemical
Outline: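 ATPase activity of Triton-washed rabbit skeletal myofibrils, roughly 90% fast fibres, tracked by NADH loss at 340 nm through a PK/LDH-coupled ADP-regenerating system. Calcium set to 25% of maximal activity (pCa25), in PIPES 12 mM pH 6.8 with 2 mM MgCl2 and 1 mM DTT; AC1.4 reported.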

SMILES | Mean AC1.4
CCOC(=O)CCc1ccc(NCC(C)(C)c2ccc(F)cc2)nn1 [ethyl 3-(6-{[2-(4-fluorophenyl)-2-methylpropyl]amino}pyridazin-3-yl)propanoate] | D (D=>20 uM)
COC(=O)N1CC(CNc2ccc(-c3ccc4[nH]ncc4c3)nn2)(c2ncccc2F)C1 [methyl 3-(3-fluoro(2-pyridyl))-3-{[(6-(1H-indazol-5-yl)pyridazin-3-yl)amino]methyl}azetidine-carboxylate] | D (D=>20 uM)
COC(=O)N1CC(CNc2ccc(-c3cccc(C(N)=O)c3)nn2)(c2ncccc2F)C1 [methyl 3-({[6-(3-carbamoylphenyl)pyridazin-3-yl]amino}methyl)-3-(3-fluoro(2-pyridyl))azetidinecarboxylate] | D (D=>20 uM)
COC(=O)c1cncc(-c2ccc(NCC(C)(C)c3ccc(F)cc3)nn2)c1 [methyl 5-(6-{[2-(4-fluorophenyl)-2-methylpropyl]amino}pyridazin-3-yl)pyridine-3-carboxylate] | B (B=1-10 uM)
CC(C)(C)OC(=O)N1CCN(C(=O)c2ccc(NCC(C)(C)c3ccc(F)cc3)nn2)CC1 [tert-butyl 4-[(6-{[2-(4-fluorophenyl)-2-methylpropyl]amino}pyridazin-3-yl)carbonyl]piperazinecarboxylate] | D (D=>20 uM)
CC(C)(C)OC(=O)N1CCN(C(=O)c2cccc(-c3ccc(NCC(C)(C)c4ccc(F)cc4)nn3)c2)CC1 [tert-butyl 4-{[3-(6-{[2-(4-fluorophenyl)-2-methylpropyl]amino}pyridazin-3-yl)phenyl]carbonyl}piperazine-carboxylate] | B (B=1-10 uM)

Same assay, conditions: median AC1.4 class, procedure of Example 39

SMILES | Mean AC1.4
CCOC(=O)c1c(-c2ccc(NCC3(c4ncccc4F)CCC3)nn2)n[nH]c1O [ethyl 3-[6-({[(3-fluoro(2-pyridyl))cyclobutyl]methyl}ami-no)pyridazin-3-yl]-5-hydroxypyrazole-4-carboxylate] | D (D=>20 uM)
CCOC(=O)c1nc(-c2cc(Cl)c(NCC3(c4ncccc4F)CCC3)nn2)sc1Cl [ethyl 5-chloro-2-[5-chloro-6-({[(3-fluoro(2-pyridyl))cyclobutyl]methyl}ami-no)pyridazin-3-yl]-1,3-thiazole-4-carboxylate] | D (D=>20 uM)
COC(=O)c1cn(C)c(-c2ccc(NCC3(c4ncccc4F)CCC3)nn2)n1 [methyl 2-[6-({[(3-fluoro(2-pyridyl))cyclobutyl]methyl}ami-no)pyridazin-3-yl]-1-methylimidazole-4-carboxylate] | D (D=>20 uM)
COC(=O)c1cnc(-c2ccc(NCC3(c4ncccc4F)CCC3)nn2)o1 [methyl 2-[6-({[(3-fluoro-2-pyridyl)cyclobutyl]methyl}ami-no)pyridazin-3-yl]-1,3-oxazole-5-carboxylate] | D (D=>20 uM)
COC(=O)c1csc(-c2ccc(NCC3(c4ncccc4F)CCC3)nn2)n1 [methyl 2-[6-({[(3-fluoro-2-pyridyl)cyclobutyl]methyl}ami-no)pyridazin-3-yl]-1,3-thiazole-4-carboxylate] | D (D=>20 uM)
COC(=O)c1c[nH]c(-c2ccc(NCC3(c4ncccc4F)CCC3)nn2)n1 [methyl 2-[6-({[(3-fluoro-2-pyridyl)cyclobutyl]methyl}ami-no)pyridazin-3-yl]imidazole-4-carboxylate] | D (D=>20 uM)
COC(=O)c1cccc(-c2ccc(NC[C@]3(c4ncccc4F)C[C@H](F)C3)nn2)c1 [methyl 3-[6-({[3-fluoro-1-(3-fluoro(2-pyridyl))cyclobutyl]methyl}ami-no)pyridazin-3-yl]benzoate] | B (B=1-10 uM)
COC(=O)c1ccc(F)c(-c2ccc(NC[C@]3(c4ncccc4F)C[C@H](F)C3)nn2)c1 [methyl 4-fluoro-3-[6-({[3-fluoro-1-(3-fluoro(2-pyridyl))cyclobutyl]methyl}ami-no)pyridazin-3-yl]benzoate] | B (B=1-10 uM)
CC(C)OC(=O)c1ccc(F)c(-c2ccc(NC[C@]3(c4ncccc4F)C[C@H](F)C3)nn2)c1 [methylethyl 4-fluoro-3-[6-({[3-fluoro-1-(3-fluoro(2-pyridyl))cyclobutyl]methyl}ami-no)pyridazin-3-yl]benzoate] | B (B=1-10 uM)
O=C(CNC(=O)c1ccc(NCC2(c3ncccc3F)CCC2)nn1)OCc1ccccc1 [phenylmethyl 2-{[6-({[(3-fluoro-2-pyridyl)cyclobutyl]methyl}ami-no)pyridazin-3-yl]carbonylamino}acetate] | D (D=>20 uM)
CC(C)(C)OC(=O)N1CC(F)(F)CC1C(=O)NCc1cnc(-c2ccc(NCC3(c4ncccc4F)CCC3)nn2)s1 [tert-butyl (2S)-4,4-difluoro-2-[N-({2-[6-({[(3-fluoro(2-pyridyl))cyclobutyl]methyl}ami-no)pyridazin-3-yl](1,3-thiazol-5-yl)}methyl)carbamoyl]pyrrolidine-carboxylate] | B (B=1-10 uM)
O=C(NCCO)c1cnc(-c2ccc(NCC3(c4ncccc4F)CCC3)nn2)s1 [{2-[6-({[(3-fluoro(2-pyridyl))cyclobutyl]methyl}ami-no)pyridazin-3-yl](1,3-thiazol-5-yl)}-N-(2-hydroxyethyl)carboxamide] | A (A=<1 uM)
O=C(NC1CCNC1=O)c1cnc(-c2ccc(NCC3(c4ncccc4F)CCC3)nn2)s1 (stereo not drawn) [{2-[6-({[(3-fluoro(2-pyridyl))cyclobutyl]methyl}ami-no)pyridazin-3-yl](1,3-thiazol-5-yl)}-N-(2-oxopyrrolidin-3-yl)carboxamide] | B (B=1-10 uM)
CC(C)NC(=O)c1cnc(-c2ccc(NCC3(c4ncccc4F)CCC3)nn2)s1 [{2-[6-({[(3-fluoro(2-pyridyl))cyclobutyl]methyl}ami-no)pyridazin-3-yl](1,3-thiazol-5-yl)}-N-(methylethyl)carboxamide] | B (B=1-10 uM)
O=C(NCC1CCCO1)c1cnc(-c2ccc(NCC3(c4ncccc4F)CCC3)nn2)s1 (stereo not drawn) [{2-[6-({[(3-fluoro(2-pyridyl))cyclobutyl]methyl}ami-no)pyridazin-3-yl](1,3-thiazol-5-yl)}-N-(oxolan-2-ylmethyl)carboxamide] | B (B=1-10 uM)
CS(=O)(=O)CCNC(=O)c1cnc(-c2ccc(NCC3(c4ncccc4F)CCC3)nn2)s1 [{2-[6-({[(3-fluoro(2-pyridyl))cyclobutyl]methyl}ami-no)pyridazin-3-yl](1,3-thiazol-5-yl)}-N-[2-(methylsulfonyl)ethyl]carboxamide] | A (A=<1 uM)
CNC(=O)c1cnc(-c2ccc(NCC3(c4ncccc4F)CCC3)nn2)s1 [{2-[6-({[(3-fluoro(2-pyridyl))cyclobutyl]methyl}ami-no)pyridazin-3-yl](1,3-thiazol-5-yl)}-N-methylcarboxamide] | A (A=<1 uM)

Same assay, conditions: median AC1.4 reported as class; procedure of Example 39

SMILES | Mean AC1.4
CCOC(=O)Cc1csc(-c2ccc(NCC3(c4ncccc4F)CCC3)nn2)n1 [ethyl 2-{2-[6-({[(3-fluoro-2-pyridyl)cyclobutyl]methyl}ami-no)pyridazin-3-yl]-1,3-thiazol-4-yl}acetate] | C (C=10-20 uM)
CCOC(=O)c1coc(NC(=O)c2ccc(NCC3(c4ncccc4F)CCC3)nn2)n1 [ethyl 2-{[6-({[(3-fluoro-2-pyridyl)cyclobutyl]methyl}ami-no)pyridazin-3-yl]carbonylamino}-1,3-oxazole-4-carboxylate] | D (D=>20 uM)
CCOC(=O)c1cnc(NC(=O)c2ccc(NCC3(c4ncccc4F)CCC3)nn2)s1 [ethyl 2-{[6-({[(3-fluoro-2-pyridyl)cyclobutyl]methyl}ami-no)pyridazin-3-yl]carbonylamino}-1,3-thiazole-5-carboxylate] | D (D=>20 uM)
CCOC(=O)c1nc(NC(=O)c2ccc(NCC3(c4ncccc4F)CCC3)nn2)cn1C [ethyl 4-{[6-({[(3-fluoro(2-pyridyl))cyclobutyl]methyl}ami-no)pyridazin-3-yl]carbonylamino}-1-methylimidazole-2-carboxylate] | D (D=>20 uM)
CCOC(=O)c1cc(-c2ccc(NC[C@]3(c4ncccc4F)C[C@H](F)C3)nn2)ccc1NC [ethyl 5-[6-({[3-fluoro-1-(3-fluoro(2-pyridyl))cyclobutyl]methyl}ami-no)pyridazin-3-yl]-2-(methylamino)benzoate] | A (A=<1 uM)
COC(=O)Cc1ccc(F)c(-c2ccc(NCC3(c4ncccc4F)CCC3)nn2)c1 [methyl 2-{4-fluoro-3-[6-({[(3-fluoro(2-pyridyl))cyclobutyl]methyl}ami-no)pyridazin-3-yl]phenyl}acetate] | B (B=1-10 uM)
COC(=O)c1csc(NC(=O)c2ccc(NCC3(c4ncccc4F)CCC3)nn2)n1 [methyl 2-{[6-({[(3-fluoro-2-pyridyl)cyclobutyl]methyl}ami-no)pyridazin-3-yl]carbonylamino}-1,3-thiazole-4-carboxylate] | B (B=1-10 uM)
COC(=O)CCc1cnc(-c2ccc(NCC3(c4ncccc4F)CCC3)nn2)s1 [methyl 3-{2-[6-({[(3-fluoro-2-pyridyl)cyclobutyl]methyl}ami-no)pyridazin-3-yl]-1,3-thiazol-5-yl}propanoate] | B (B=1-10 uM)
CNc1ccc(-c2ccc(NC[C@]3(c4ncccc4F)C[C@H](F)C3)nn2)cc1C(=O)OC [methyl 5-[6-({[3-fluoro-1-(3-fluoro(2-pyridyl))cyclobutyl]methyl}ami-no)pyridazin-3-yl]-2-(methylamino)benzoate] | B (B=1-10 uM)
COC(=O)c1cc2cc(-c3ccc(NC[C@]4(c5ncccc5F)C[C@H](F)C4)nn3)ccc2[nH]1 [methyl 5-[6-({[3-fluoro-1-(3-fluoro(2-pyridyl))cyclobutyl]methyl}ami-no)pyridazin-3-yl]indole-2-carboxylate] | A (A=<1 uM)
